The nature of data set [1]: in vitro. The format is cell-based. As to conditions: human, 72 h, MTS. The procedure:
THP-1 (human monocyte cell line) cells were cultivated in RPMI medium supplemented with 10% foetal calf serum (FCS) (Cultilab, Campinas, SP, BR) and 1% penicillin and streptomycin (pen/strep—Sigma-Aldrich) at 37°C under 5% CO2, and HFF-1 (human fibroblast) and HepG2 (hepatocytes) cells were cultivated in DMEM without phenol red (Cultilab) supplemented with 10% FBS (Sigma-Aldrich) and 1% pen/strep at 37°C under 5% CO2.
The cytotoxicity of the compounds against HFF-1 fibroblasts and HepG2 hepatocytes was evaluated using the MTS tetrazolium assay (Promega, Madison, WI, USA). HFF-1 fibroblasts were seeded at 4x10^3/well in 96-well culture plates in DMEM without phenol red and incubated overnight (37°C, 5% CO2). HepG2 hepatocytes were seeded at 7x10^3/well in 96-well culture plates in DMEM (Cultilab) with supplements (10% FCS, 1% pen/strep) and incubated overnight (37°C, 5% CO2). The compounds were added in 2-fold serial dilutions at the same concentrations described before, and the plates were incubated as described before. Each compound concentration was evaluated in duplicate. All the plates included doxorubicin (DOX) (Sigma-Aldrich) as a positive control (10–0.01 μM) and untreated wells as a negative control (100% growth). After 72 h, 15 μL of MTS (Promega) was added, and the plates were incubated for 4 h. The absorbance was measured at 490 nm in an automated SpectraMax 384 microplate reader (Sunnyvale, CA, USA), and the data were analysed using GraphPad Prism version 8.0 for CC50 value calculation. The percentage of nonviable cells was determined and compared to the negative control wells (100% growth).

For data set [2], the system named is intracellular T. cruzi Tulahuen LacZ amastigotes. The data set is described as follows: microbe, parasite or virus in culture. Type of data set: cell-based, Trypanosoma cruzi. As to conditions: for IC50: Trypanosoma cruzi, intracellular amastigotes, Tulahuen LacZ, HFF-1 host cells, 120 h, read-out: T. cruzi IC50 (μM ± SD); for SI^1 (CC50 HFF-1/IC50 T. cruzi) / SI^3 (CC50 HepG2/IC50 T. cruzi): selectivity index. The procedure:
The epimastigote forms of the T. cruzi Tulahuen strain, which expresses the E. coli β-galactosidase gene lacZ [11], were grown in liver infusion tryptone (LIT) supplemented with 10% FCS (Cultilab) and 1% pen/strep (Sigma–Aldrich) at 28°C. Metacyclogenesis from epimastigotes to trypomastigotes was induced by the incubation of the epimastigotes in Grace’s insect medium (Sigma-Aldrich, 28°C) every 5 days. After 5 days, the trypomastigote forms were used to infect the HFF-1 cells. The promastigote forms of L. infantum were maintained in Schneider’s insect medium (Sigma-Aldrich) supplemented with 10% FCS (Cultilab) and 1% pen/strep (Sigma-Aldrich) at 28°C and subcultured every 6 or 7 days.
In vitro assays against T. cruzi were performed as described previously. HFF-1 human fibroblasts were seeded at 4x10^3/well in 96-well tissue culture plates in DMEM (Cultilab) without phenol red and then incubated overnight (37°C, 5% CO2). Next, trypomastigotes were added at 4x10^4/well, and the plates were incubated (37°C, 5% CO2). After 24 h, 2-fold serial dilutions of the test compounds were added at concentrations ranging from 64 to 0.12 μM, and the plates were then incubated (37°C, 5% CO2). Each compound concentration was evaluated in duplicate. All the plates included BZ (64–0.12 μM) (Sigma-Aldrich) as a positive control and untreated wells (100% growth) as a negative control. After 120 h, chlorophenol red β-D-galactopyranoside (CPRG, Sigma-Aldrich) was added to each well. The absorbance was measured at 570 nm in an automated SpectraMax 384 microplate reader (Sunnyvale, CA, USA), and the data were analysed using GraphPad Prism version 8.0 (San Diego, CA, USA) for IC50 value calculation.
The analyses were performed using GraphPad Prism version 8.0 (GraphPad Software, San Diego, CA, USA). Both the IC50 and CC50 values were calculated by adjusting the sigmoid dose-response curves, and the selectivity index (SI) values were determined by CC50/IC50 [16]. Statistical analyses were performed using one-way ANOVA followed by Dunnett’s multiple comparison test.

Data set [3] in a line: in vitro. As to conditions: PAMPA; donor pH 6.5, acceptor pH 7.4, 5 h, 37°C; read-out: PAMPA permeability Mean Pe. The format is in vitro ADME. The procedure:
A parallel artificial membrane permeability assay was performed in a 96-well precoated PAMPA plate system (Corning Gentest # 353015). The compound solutions were prepared by diluting the stock solutions (10 mM) in phosphate-buffered saline (PBS) pH 6.5 at a final concentration of 10 μM and then added to the donor portion of the plate (300 μl/well), while PBS pH 7.4 (200 μl/well) was added to the acceptor portion, and the DMSO concentration was lower than 1%. The two portions of the plate were then coupled, and the system was incubated for 5 h at 37°C. Samples of the initial donor solution (T0) were collected and stored at -20°C. At the end of the incubation, samples were collected from the donor and acceptor plates and then added to plates containing quench solution (10% water and 90% methanol:acetonitrile (50:50) + 50 nM tolbutamide). The T0 samples were treated similarly. The final concentrations of compounds in the donor, acceptor and T0 wells were quantified by LC-MS/MS (liquid chromatography-tandem mass spectrometry) Prominence UFLC (Shimadzu Corporation, Kyoto, Japan) and interfaced with an LCMS-8045 triple quadrupole mass spectrometer (Shimadzu Corporation, Kyoto, Japan) with an electrospray ionization source (ESI). The chromatogram for analysis was obtained on a Supelco Ascentis express C18 column (3 cm x 2.1 mm, 5 μM). The mobile phases consisted of water + 0.1% formic acid (A) and acetonitrile + 0.1% formic acid (B). The mobile phase was eluted in binary gradient mode, and the gradient was as follows: 0 min, 95% A; 0.05 mins. 95% A; 0.3 mins: 2% A; 0.7 mins: 2% A; 0.8 mins: 95% A; 1.15 mins 95% A; and 2.0 mins 95% A. The run time was 2 minutes, the sample injection volume was 10 μL, and the flow rate was 0.7 mL/min. The results were used to calculate an effective permeability (Pe) value.
(In general: In PAMPA a lipid-coated filter parts donor from acceptor wells.)

In general, CC50 refers to the concentration that lowers cell viability or growth by half. What is called IC50 is the concentration that gives 50% inhibition.

Each structure is given as a SMILES string. Where two headings read alike, the source gives them in different places.

With `C=C1[C@@H](C)[C@H]2[C@H](Cc3ccccc3)NC(=O)[C@]23OC(=O)/C=C/C(=O)CCC[C@@H](C)C/C=C/[C@H]3[C@@H]1O` [Cytochalasin A], the cytotoxic concentration (CC50) in data set [1] (read-out: HFF-1 CC50 (μM ± SD)) is 27.07 ± 0.17 µM. For the same molecule, the CC50 in data set [1] (read-out: HepG2 CC50 (μM ± SD)) was determined as 21.1 ± 4.51 µM. For the same molecule, in data set [2], the IC50 stood at 3.02 ± 2.16 µM, the “SI^1 (CC50 HFF-1/IC50 T. cruzi)” value came out at 8.96 and the “SI^3 (CC50 HepG2/IC50 T. cruzi)” value is recorded as 6.99. Besides, the Papp in data set [3] was 27.1 ± 2.37 ×10⁻⁶ cm/s.
With `C=C1[C@@H](C)[C@H]2[C@H](Cc3ccccc3)NC(=O)[C@]23OC(=O)/C=C/[C@H](O)CCC[C@@H](C)C/C=C/[C@H]3[C@@H]1O` [Cytochalasin B], the CC50 in data set [1] (read-out: HFF-1 CC50 (μM ± SD)) came to 21.8 ± 3.57 µM. Further, in data set [1] (read-out: HepG2 CC50 (μM ± SD)), the half-maximal cytotoxic concentration (CC50) is 46.3 ± 19.3 µM. Besides, in data set [2], the IC50 was 16.9 ± 1.47 µM, the “SI^1 (CC50 HFF-1/IC50 T. cruzi)” value was 1.29 and the “SI^3 (CC50 HepG2/IC50 T. cruzi)” value was 2.74. In data set [3], the Papp was 15.8 ± 0.31 ×10⁻⁶ cm/s.
As for `CC(=O)OC1C=CC(C)(O)C(=O)C(C)CC=CC2C(O)C(C)=C(C)C3C(Cc4ccccc4)NC(=O)C123` (stereo not drawn) [Cytochalasin C], the CC50 in data set [1] (read-out: HFF-1 CC50 (μM ± SD)) was 76.3 ± 3.12 µM. Besides, the cytotoxic concentration (CC50) in data set [1] (read-out: HepG2 CC50 (μM ± SD)) amounted to 22.5 ± 6.47 µM. Moreover, in data set [2], the half-maximal inhibitory concentration (IC50) worked out at 10.2 ± 1.13 µM, the “SI^1 (CC50 HFF-1/IC50 T. cruzi)” value came out at 7.45 and the “SI^3 (CC50 HepG2/IC50 T. cruzi)” value was 2.19. In data set [3], the Papp was 14.8 ± 3.28 ×10⁻⁶ cm/s.
On to `C=C1[C@@H](C)[C@H]2[C@H](Cc3ccccc3)NC(=O)[C@]23[C@H](OC(C)=O)/C=C/[C@@](C)(O)C(=O)[C@@H](C)C/C=C/[C@H]3[C@@H]1O` [Cytochalasin D], for which the cytotoxic concentration (CC50) in data set [1] (read-out: HFF-1 CC50 (μM ± SD)) was 96.5 ± 10 µM. In data set [1] (read-out: HepG2 CC50 (μM ± SD)), the half-maximal cytotoxic concentration (CC50) turned out to be 123 ± 20 µM. Also, in data set [2], the half-inhibitory concentration (IC50) is 20.2 ± 3.27 µM, the “SI^1 (CC50 HFF-1/IC50 T. cruzi)” value turned out to be 4.78 and the “SI^3 (CC50 HepG2/IC50 T. cruzi)” value was determined as 6.11. The Papp in data set [3] was found to be 8.74 ± 0.64 ×10⁻⁶ cm/s.

Source of the values: publication PMC9529094, “Identification of natural cytochalasins as leads for neglected tropical diseases drug discovery” (PLoS ONE, 2022).
